In ChEMBL document CHEMBL4382254, “Design, synthesis, structure-activity relationships and mechanism of action of new quinoline derivatives as potential antitumor agents” (Eur J Med Chem, 2019):
Activity calls are given as the source filed them. No cut-off for these calls is given here.

How the values were obtained:
[1] = system: RKO; experiment: Inhibition of colony formation in human RKO cells after 24 hrs by crystal violet staining based assay; type: functional, cell-based
[2] = system: HCT-116; experiment: Induction of apoptosis in Bax-deficient human HCT116 cells assessed as early apoptotic cells at 5 uM after 24 hrs by Annexin V-FITC/propidium iodide staining based flow cytometry (reference value: 8.01%); type: functional
[3] = system: SK-OV-3; experiment: Cytotoxicity against human SKOV3 cells after 48 hrs by MTT assay; type: functional, cell-based; conditions: SK-OV-3, 48 h
[4] = system: NCI-H1650; experiment: Cytotoxicity against human NCI-H1650 cells after 48 hrs by MTT assay; type: functional, cell-based; conditions: NCI-H1650, 48 h
[5] = system: HCT-116; experiment: Induction of apoptosis in Bax-deficient human HCT116 cells assessed as late apoptotic cells at 5 uM after 24 hrs by Annexin V-FITC/propidium iodide staining based flow cytometry (reference value: 14.67%); type: functional
[6] = system: HCT-116; experiment: Cell cycle arrest in human HCT116 cells assessed as accumulation at G2/M phase at 5 uM after 24 hrs by propidium iodide staining based flow cytometry (reference value: 16.3%); type: functional
[7] = system: HCT-116; experiment: Cytotoxicity against human HCT116 cells assessed as reduction in cell viability at 5 uM incubated for 24 hrs followed by compound washout by CCK8 assay; type: functional, cell-based; conditions: TDE = time-dependent effect
[8] = system: HCT-116; experiment: Inhibition of colony formation in human HCT116 cells after 24 hrs by crystal violet staining based assay; type: functional, cell-based
[9] = target: Cellular tumor antigen p53 (Homo sapiens) (UniProt P04637); experiment: Induction of P53 phosphorylation at Ser15 residue in human HCT116 cells after 15 to 90 mins by immunoblot analysis; type: cell-based
[10] = system: HCT-116; experiment: Induction of apoptosis in human HCT116 cells assessed as late apoptotic cells at 2.5 to 5 uM after 24 hrs in presence of pan-caspase inhibitor z-VAD-FMK by Annexin V-FITC/propidium iodide staining based flow cytometry (reference value: 7.29%); type: functional
[11] = system: HCT-116; experiment: Induction of apoptosis in human HCT116 cells assessed as early apoptotic cells at 2.5 uM after 24 hrs by Annexin V-FITC/propidium iodide staining based flow cytometry (reference value: 3.32%); type: functional
[12] = system: HCT-116; experiment: Induction of apoptosis in human HCT116 cells assessed as late apoptotic cells at 5 uM after 24 hrs by Annexin V-FITC/propidium iodide staining based flow cytometry (reference value: 6.08 to 11.92%); type: functional
[13] = system: RKO; experiment: Cytotoxicity against human RKO cells after 48 hrs by MTT assay; type: functional, cell-based
[14] = system: HCT-116; experiment: Induction of apoptosis in P53-deficient human HCT116 cells assessed as viable cells at 5 uM after 24 hrs by Annexin V-FITC/propidium iodide staining based flow cytometry (reference value: 75.5%); type: functional; conditions: HCT-116, 24 h, read-out: Activity
[15] = system: HCT-116; experiment: Induction of autophagy in human HCT116 cells expressing GFP-LC3 assessed as increase in LC3 puncta formation at 10 uM after 24 hrs by fluorescence microscopic analysis; type: functional, cell-based
[16] = target: Cellular tumor antigen p53 (Homo sapiens) (UniProt P04637); experiment: Induction of P53 translocation to nucleus in human HCT116 cells measured after 15 to 90 mins by immunoblot analysis; type: cell-based
[17] = system: HCT-116; experiment: Induction of apoptosis in P53-deficient human HCT116 cells assessed as increase in Bax expression at 2.5 to 20 uM after 24 hrs by immunoblot analysis; type: functional, cell-based
[18] = target: Cellular tumor antigen p53 (Homo sapiens) (UniProt P04637); experiment: Induction of P53 phosphorylation at Ser392 residue in human HCT116 cells after 15 to 90 mins by immunoblot analysis; type: cell-based
[19] = system: HCT-116; experiment: Induction of apoptosis in human HCT116 cells assessed as decrease in pro-caspase9 level at 2.5 to 10 uM after 24 hrs by immunoblot analysis; type: functional, cell-based
[20] = system: HCT-116; experiment: Induction of apoptosis in human HCT116 cells assessed as necrotic cells at 5 uM after 24 hrs by Annexin V-FITC/propidium iodide staining based flow cytometry (reference value: 3.46 to 9.31%); type: functional
[21] = system: HCT-116; experiment: Induction of apoptosis in human HCT116 cells assessed as early apoptotic cells at 2.5 to 5 uM after 24 hrs in presence of pan-caspase inhibitor z-VAD-FMK by Annexin V-FITC/propidium iodide staining based flow cytometry (reference value: 2.5%); type: functional
[22] = system: RKO; experiment: Induction of morphological changes in human RKO cells assessed as reduction in cell number at 5 to 10 uM after 24 hrs by phase contrast microscopic analysis; type: functional, cell-based
[23] = Solubility of the compound in water; type: physicochemical
[24] = system: HCT-116; experiment: Cell cycle arrest in human HCT116 cells assessed as accumulation at S phase at 5 uM after 48 hrs by propidium iodide staining based flow cytometry (reference value: 6.79%); type: functional
[25] = system: DLD-1; experiment: Cytotoxicity against human DLD1 cells assessed as reduction in cell viability at 5 uM incubated for 24 hrs followed by compound washout by CCK8 assay; type: functional, cell-based; conditions: TDE = time-dependent effect
[26] = system: HCT-116; experiment: Induction of apoptosis in human HCT116 cells assessed as necrotic cells at 2.5 uM after 24 hrs by Annexin V-FITC/propidium iodide staining based flow cytometry (reference value: 3.46%); type: functional
[27] = system: HCT-116; experiment: Induction of apoptosis in human HCT116 cells assessed as viable cells at 5 uM after 24 hrs by Annexin V-FITC/propidium iodide staining based flow cytometry (reference value: 73.26 to 87.19%); type: functional; conditions: HCT-116, 24 h, read-out: Activity
[28] = system: HCT-116; experiment: Induction of apoptosis in P53-deficient human HCT116 cells assessed as necrotic cells at 5 uM after 24 hrs by Annexin V-FITC/propidium iodide staining based flow cytometry (reference value: 4.45%); type: functional
[29] = system: FHC; experiment: Cytotoxicity against human FHC cells assessed as reduction in cell viability at 5 uM incubated for 24 hrs by CCK8 assay; type: cell-based
[30] = system: HCT-116; experiment: Cytotoxicity against human HCT116 cells assessed as reduction in cell viability measured after 24 hrs by CCK8 assay; type: functional, cell-based; conditions: HCT-116, 24 h
[31] = system: HCT-116; experiment: Induction of apoptosis in human HCT116 cells assessed as increase in cleaved PARP level at 2.5 to 10 uM after 24 hrs by immunoblot analysis; type: functional, cell-based
[32] = system: HCT-116; experiment: Cell cycle arrest in human HCT116 cells assessed as accumulation at S phase at 5 uM after 24 hrs by propidium iodide staining based flow cytometry (reference value: 5.55%); type: functional
[33] = target: Cellular tumor antigen p53 (Homo sapiens) (UniProt P04637); experiment: Activation of P53 in human HCT116 cells assessed as increase in p21 expression at 2.5 to 20 uM after 24 hrs by immunoblot analysis; type: cell-based
[34] = system: HCT-116; experiment: Cytotoxicity against P53-deficient human HCT116 cells assessed as reduction in cell viability measured after 24 hrs by CCK8 assay; type: functional, cell-based; conditions: HCT-116, 24 h
[35] = system: HCT-116; experiment: Cell cycle arrest in human HCT116 cells assessed as accumulation at G0/G1 phase at 5 uM after 48 hrs by propidium iodide staining based flow cytometry (reference value: 82.16%); type: functional
[36] = system: HCT-116; experiment: Cytotoxicity against Bax-deficient human HCT116 cells assessed as reduction in cell viability measured after 24 hrs by CCK8 assay; type: functional, cell-based; conditions: HCT-116, 24 h
[37] = target: Cellular tumor antigen p53 (Homo sapiens) (UniProt P04637); experiment: Activation of P53 in human HCT116 cells assessed as increase in Bax expression at 2.5 to 20 uM after 24 hrs by immunoblot analysis; type: cell-based

Chain of Cellular tumor antigen p53 (Homo sapiens) (P04637 whole entry, looked up): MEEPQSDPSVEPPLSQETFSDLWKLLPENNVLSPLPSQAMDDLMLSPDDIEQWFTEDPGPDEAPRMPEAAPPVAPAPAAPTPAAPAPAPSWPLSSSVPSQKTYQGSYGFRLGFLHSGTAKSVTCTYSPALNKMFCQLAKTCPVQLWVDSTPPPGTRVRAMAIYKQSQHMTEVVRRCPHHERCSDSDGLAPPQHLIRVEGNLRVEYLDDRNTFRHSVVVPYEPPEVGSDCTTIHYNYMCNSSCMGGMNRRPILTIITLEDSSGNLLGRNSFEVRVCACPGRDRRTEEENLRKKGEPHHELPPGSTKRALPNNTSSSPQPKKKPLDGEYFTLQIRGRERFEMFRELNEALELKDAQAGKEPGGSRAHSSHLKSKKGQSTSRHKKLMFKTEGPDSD

## CN(C)CCNc1ccnc2cc(OCc3ccc(F)cc3)ccc12
[1]
  inhibition: Dose-dependent effect
[2]
  Activity: 24.16%
[3]
  IC50: 0.89 µM
[4]
  IC50: 0.78 µM
[5]
  Activity: 7.29%
[6]
  Activity: 12.94%
[7]
  Activity: Tde
[8]
  inhibition: Dose-dependent effect
[9]
  Activity: Active
[10]
  Activity: 10.05%
[11]
  Activity: 4.94%
[12]
  Activity: 17.49 - 17.54%
[13]
  IC50: 0.58 µM
[14]
  viability at 5 µM: 76.3%
[15]
  Activity: inactive
[16]
  Activity: Active
[17]
  Activity: inactive
[18]
  Activity: Active
[19]
  Activity: Active
[20]
  Activity: 9.3 - 10.45%
[21]
  Activity: 3.15%
[22]
  Activity: Active
[23]
  solubility: > 10000 µg/mL
[24]
  Activity: 7.61%
[25]
  Activity: Tde
[26]
  Activity: 6.64%
[27]
  viability at 5 µM: 52.5 to 69.1%
[28]
  Activity: 4.45%
[29]
  Activity: Non-Toxic
[30]
  IC50: 72.8 µM
[31]
  Activity: Active
[32]
  Activity: 4.38%
[33]
  Activity: Active
[34]
  IC50: 18.1 µM
[35]
  Activity: 83.72%
[36]
  IC50: 31.1 µM
[37]
  Activity: Active
